Laboratory results as given in ChEMBL document CHEMBL1909046, “DrugMatrix in vitro pharmacology data”.

Tests used:
[1] = molecular target: T1, Type-2 angiotensin II receptor (Homo sapiens, UniProt P50052); type: cell-based; conditions: cho-k1; note: in other assays of this panel Not Active means under 50% inhibition at 10 µM
T1 sequence (P50052 whole entry): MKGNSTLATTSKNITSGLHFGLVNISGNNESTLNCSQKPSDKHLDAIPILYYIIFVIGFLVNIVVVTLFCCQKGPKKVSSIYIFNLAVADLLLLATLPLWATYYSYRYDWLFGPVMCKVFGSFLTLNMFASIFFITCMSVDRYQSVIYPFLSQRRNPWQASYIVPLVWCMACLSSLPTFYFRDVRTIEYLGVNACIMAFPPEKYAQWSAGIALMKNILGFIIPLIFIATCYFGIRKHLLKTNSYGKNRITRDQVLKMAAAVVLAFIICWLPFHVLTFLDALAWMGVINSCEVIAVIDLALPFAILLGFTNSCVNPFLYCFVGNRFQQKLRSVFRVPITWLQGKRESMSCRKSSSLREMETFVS

[2] = molecular target: Sigma non-opioid intracellular receptor 1 (Homo sapiens, UniProt Q99720); experiment: DRUGMATRIX: Sigma1 radioligand binding (ligand: [3H] Haloperidol); type: cell membranes, Jurkat, Membrane; conditions: jurkat; Not Active = under 50% inhibition at 10 µM
[3] = DRUGMATRIX: Glutamate, NMDA, Phencyclidine radioligand binding (ligand: [3H] TCP); type: cell membranes, Rattus norvegicus, Wistar, Cerebral cortex, Membrane; conditions: Not Active = under 50% inhibition at 10 µM
[4] = molecular target: Histamine H2 receptor (Homo sapiens, UniProt P25021); type: cell membranes, CHO-K1, Membrane; conditions: cho-k1; note: in other assays of this panel Not Active means under 50% inhibition at 10 µM
[5] = molecular target: Melanocortin receptor 3 (Homo sapiens, UniProt P41968); type: cell membranes, HEK293, Membrane; conditions: hek293; note: in other assays of this panel Not Active means under 50% inhibition at 10 µM
[6] = molecular target: Delta-type opioid receptor (Homo sapiens, UniProt P41143); type: cell membranes, Membrane; conditions: hek293; note: in other assays of this panel Not Active means under 50% inhibition at 10 µM
[7] = molecular target: Cytochrome P450 2C19 (Homo sapiens, UniProt P33261); conditions: bti-tn-5b1-4; note: in other assays of this panel Not Active means under 50% inhibition at 10 µM
Chain of Cytochrome P450 2C19 (P33261 whole entry): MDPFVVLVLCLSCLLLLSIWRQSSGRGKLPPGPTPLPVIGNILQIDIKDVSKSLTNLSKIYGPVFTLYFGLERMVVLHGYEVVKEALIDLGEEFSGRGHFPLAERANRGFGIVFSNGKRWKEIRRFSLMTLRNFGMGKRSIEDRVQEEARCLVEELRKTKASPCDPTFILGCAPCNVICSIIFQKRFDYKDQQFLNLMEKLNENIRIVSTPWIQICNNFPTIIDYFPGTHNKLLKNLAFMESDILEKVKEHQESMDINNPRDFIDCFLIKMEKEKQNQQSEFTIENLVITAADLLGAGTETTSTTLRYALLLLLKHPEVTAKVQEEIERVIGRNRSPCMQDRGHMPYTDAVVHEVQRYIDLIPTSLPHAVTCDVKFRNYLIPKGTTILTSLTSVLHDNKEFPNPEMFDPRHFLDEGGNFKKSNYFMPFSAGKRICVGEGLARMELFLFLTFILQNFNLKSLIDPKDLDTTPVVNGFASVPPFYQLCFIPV

Chain of Histamine H2 receptor (P25021 whole entry): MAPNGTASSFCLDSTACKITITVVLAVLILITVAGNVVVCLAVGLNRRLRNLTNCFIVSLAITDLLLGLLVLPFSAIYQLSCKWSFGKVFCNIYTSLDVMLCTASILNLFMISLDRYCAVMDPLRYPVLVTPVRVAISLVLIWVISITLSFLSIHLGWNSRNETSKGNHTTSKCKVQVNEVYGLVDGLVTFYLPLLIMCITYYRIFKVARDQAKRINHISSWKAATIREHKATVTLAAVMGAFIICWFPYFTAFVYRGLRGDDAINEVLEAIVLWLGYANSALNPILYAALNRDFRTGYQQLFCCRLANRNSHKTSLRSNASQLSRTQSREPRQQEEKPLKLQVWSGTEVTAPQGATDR
Chain of Delta-type opioid receptor (P41143 whole entry): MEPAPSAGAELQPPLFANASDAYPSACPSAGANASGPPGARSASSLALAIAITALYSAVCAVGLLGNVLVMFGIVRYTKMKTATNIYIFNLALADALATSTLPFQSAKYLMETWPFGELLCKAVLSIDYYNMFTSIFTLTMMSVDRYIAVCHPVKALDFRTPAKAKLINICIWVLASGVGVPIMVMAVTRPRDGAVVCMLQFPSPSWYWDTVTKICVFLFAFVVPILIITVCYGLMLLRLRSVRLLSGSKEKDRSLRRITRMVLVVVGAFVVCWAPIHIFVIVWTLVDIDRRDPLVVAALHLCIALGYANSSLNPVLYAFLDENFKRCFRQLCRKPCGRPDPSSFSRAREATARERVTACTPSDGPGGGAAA
Chain of Melanocortin receptor 3 (P41968 whole entry): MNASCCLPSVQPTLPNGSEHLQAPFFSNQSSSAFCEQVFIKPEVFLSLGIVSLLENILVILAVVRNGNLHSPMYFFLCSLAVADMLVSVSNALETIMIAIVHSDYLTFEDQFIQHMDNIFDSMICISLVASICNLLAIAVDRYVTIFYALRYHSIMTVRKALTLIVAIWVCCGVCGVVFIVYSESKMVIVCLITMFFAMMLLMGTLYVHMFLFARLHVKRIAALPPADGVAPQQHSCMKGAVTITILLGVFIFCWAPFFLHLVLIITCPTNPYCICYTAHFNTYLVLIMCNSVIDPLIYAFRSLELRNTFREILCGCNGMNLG
Chain of Sigma non-opioid intracellular receptor 1 (Q99720 whole entry): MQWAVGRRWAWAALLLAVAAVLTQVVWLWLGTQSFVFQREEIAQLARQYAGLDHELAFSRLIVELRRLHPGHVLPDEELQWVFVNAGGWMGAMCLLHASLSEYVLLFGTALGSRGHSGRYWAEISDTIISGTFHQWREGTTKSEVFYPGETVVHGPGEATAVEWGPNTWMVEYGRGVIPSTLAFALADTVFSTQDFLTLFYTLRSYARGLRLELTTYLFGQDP

O=C(c1ccccc1C(F)(F)F)N1CCC(Cc2ccccc2)CC1
Not Active: IC50 [1] | IC50 [2] | IC50 [3] | Ki [3] | IC50 [4] | IC50 [5] | IC50 [6]

O=C/C=C/c1ccccc1
Not Active: IC50 [1] | IC50 [2] | IC50 [3] | Ki [3] | IC50 [4] | IC50 [5] | IC50 [6] | IC50 [7] | Ki [7]

Nc1ccc2c3c(cccc13)C(=O)NC2=O
Not Active: IC50 [1] | IC50 [2] | IC50 [3] | Ki [3] | IC50 [4] | IC50 [5] | IC50 [6] | IC50 [7] | Ki [7]

COc1ccc(C(=O)N2CCCC2=O)cc1
Not Active: IC50 [1] | IC50 [2] | IC50 [3] | Ki [3] | IC50 [4] | IC50 [5] | IC50 [6]

O=c1cnn([C@@H]2O[C@H](CO)[C@@H](O)[C@H]2O)c(=O)[nH]1 [6-AZAURIDINE]
Not Active: IC50 [1] | IC50 [2] | IC50 [3] | Ki [3] | IC50 [4] | IC50 [5] | IC50 [6] | IC50 [7] | Ki [7]

CC[C@H](C)[C@H]1O[C@]2(C=C[C@@H]1C)C[C@@H]1C[C@@H](C/C=C(\C)[C@@H](O[C@H]3C[C@H](OC)[C@@H](O[C@H]4C[C@H](OC)[C@@H](O)[C@H](C)O4)[C@H](C)O3)[C@@H](C)/C=C/C=C3\CO[C@@H]4[C@H](O)C(C)=C[C@@H](C(=O)O1)[C@]34O)O2.CO[C@H]1C[C@H](O[C@H]2[C@H](C)O[C@@H](O[C@@H]3/C(C)=C/C[C@@H]4C[C@@H](C[C@]5(C=C[C@H](C)[C@@H](C(C)C)O5)O4)OC(=O)[C@@H]4C=C(C)[C@@H](O)[C@H]5OC/C(=C\C=C\[C@@H]3C)[C@]54O)C[C@@H]2OC)O[C@@H](C)[C@@H]1O [ABAMECTIN]
Not Active: IC50 [1] | IC50 [2] | IC50 [3] | Ki [3] | IC50 [4] | IC50 [5] | IC50 [6] | IC50 [7] | Ki [7]

NCCCC(O)(P(=O)(O)O)P(=O)(O)O [ALENDRONIC ACID]
Not Active: IC50 [1] | IC50 [2] | IC50 [3] | Ki [3] | IC50 [4] | IC50 [5] | IC50 [6]

Cc1nnc2n1-c1ccc(Cl)cc1C(c1ccccc1)=NC2 [ALPRAZOLAM]
Not Active: IC50 [1] | IC50 [2] | IC50 [3] | Ki [3] | IC50 [4] | IC50 [5] | IC50 [6] | IC50 [7] | Ki [7]

Cn1c(=O)c2[nH]cnc2n(C)c1=O.Cn1c(=O)c2[nH]cnc2n(C)c1=O.NCCN [AMINOPHYLLINE]
Not Active: IC50 [1] | IC50 [2] | IC50 [3] | Ki [3] | IC50 [4] | IC50 [5] | IC50 [6] | IC50 [7] | Ki [7]

CCC1(CCC(C)C)C(=O)NC(=O)NC1=O [AMOBARBITAL]
Not Active: IC50 [1] | IC50 [2] | IC50 [3] | Ki [3] | IC50 [4] | IC50 [5] | IC50 [6] | IC50 [7] | Ki [7]

CN1[C@@H]2CC[C@H]1C[C@@H](OC(=O)C(CO)c1ccccc1)C2 (stereo partly drawn) [ATROPINE]
Not Active: IC50 [1] | IC50 [2] | IC50 [3] | Ki [3] | IC50 [4] | IC50 [5] | IC50 [6]

CN/C(=N\CCSCc1nc[nH]c1C)NC#N [CIMETIDINE]
Not Active: IC50 [1] | IC50 [2] | IC50 [3] | Ki [3] | IC50 [5] | IC50 [6] | IC50 [7] | Ki [7]

Nc1ccn([C@@H]2O[C@H](CO)[C@@H](O)[C@@H]2O)c(=O)n1 [CYTARABINE]
Not Active: IC50 [1] | IC50 [2] | IC50 [3] | Ki [3] | IC50 [4] | IC50 [5] | IC50 [6]

C[C@@H]1C[C@H]2[C@@H]3CCC4=CC(=O)C=C[C@]4(C)[C@@]3(F)[C@@H](O)C[C@]2(C)[C@@]1(O)C(=O)CO [DEXAMETHASONE]
Not Active: IC50 [1] | IC50 [2] | IC50 [3] | Ki [3] | IC50 [4] | IC50 [5] | IC50 [6]
